{"source": "paper PMC11869560", "about": "“Anticancer and cancer preventive activities of shogaol and curcumin from Zingiberaceae family plants in KG-1a leukemic stem cells” (BMC Complementary Medicine and Therapies, 2025)", "key": {"KG-1a cells [1]": {"tested_on": "KG-1a cells", "assay": "MTT cytotoxicity assay in KG-1a cells", "format": "cell-based, human", "details": "for Selectivity index (SI): IC50 for normal cells (PBMCs) / IC50 for cancer cells (KG-1a)", "description": "(§1) MTT (3-(4,5-dimethylthiazol-2-yl)-2,5-diphenyltetrazolium bromide) assay was used to investigate the cytotoxicity of the test samples. KG-1a (1.5 × 10^4 cells/well), K562 (1.0 × 10^4 cells/well), PBMCs (1.0 × 10^5 cells/well), A549 (5.0 × 10^3 cells/well), MCF-7 (5.0 × 10^3 cells/well), and HeLa (5.0 × 10^3 cells/well) were seeded into a 96-well plate and incubated overnight at 37 °C with 5% CO2. […] After that, 5 mg/mL of MTT dye solution (Sigma-Aldrich, MA, USA) was added and incubated for 4 h. The produced formazan crystals were dissolved in 200 µL of DMSO (Sigma-Aldrich, MA, USA); then, the optical density (OD) was measured using an ELISA plate reader (Metertech, Taipei, Taiwan) at 578 nm with a reference wavelength of 630 nm. The percentage of surviving cells was calculated from the absorbance values of the test and control wells using the following Equation. 1 [drawing 1]\n(§2) where ODsample is a mean absorbance in test well and ODvehicle control is a mean absorbance in VC well. The average percentage of surviving cells at each concentration obtained from triplicate experiments was plotted as a dose-response curve. Inhibitory concentration values at 50% growth (IC50 value) were defined as the lowest concentration of the test sample that inhibited cell growth by 50% compared to the untreated control.\n(§3) To calculate IC50 values, a dose-response curve was fitted using non-linear regression analysis, as described in the GraphPad Prism guidelines (https://www.graphpad.com/support/faq/how-to-determine-an-icsub50sub/). The IC50 value was obtained by determining the point at which the curve intersected 50% growth inhibition. Non-linear regression graphs of the dose-response curve for each compound are provided in the supplementary data file (Figs. S1–S8).\nwhere IC50 N is IC50 for normal cells and IC50 C is IC50 for cancer cells which were treated with the same compounds in both cells."}, "PBMCs": {"tested_on": "PBMCs", "assay": "MTT cytotoxicity assay in PBMCs", "format": "cell-based, human", "description": "PBMCs were isolated from blood samples using the Ficoll-Hypaque technique. Initially, 10–20 mL of blood was collected in a heparin tube at a ratio of 1:500 from a minimum of three healthy volunteers. Subsequently, the blood samples were diluted with Phosphate buffer saline (PBS), pH 7.4, at a ratio of 1:1 to reduce viscosity. Histopaque-1077 (Sigma-Aldrich, MA, USA) was then underlaid the diluted sample and centrifuged at 400×g for 30 min. The resulting PBMCs were collected, washed with PBS, pH 7.4, and prepared for further experiments.\nas §1, §2, §3"}, "RAW264.7 cells": {"tested_on": "RAW264.7 cells", "assay": "Cytotoxicity (IC20, cell viability) in RAW264.7 cells", "format": "cell-based", "details": "incubation for 48 h", "description": "MTT (3-(4,5-dimethylthiazol-2-yl)-2,5-diphenyltetrazolium bromide) assay was used to investigate the cytotoxicity of the test samples. […] After that, 5 mg/mL of MTT dye solution (Sigma-Aldrich, MA, USA) was added and incubated for 4 h. The produced formazan crystals were dissolved in 200 μL of DMSO (Sigma-Aldrich, MA, USA); then, the optical density (OD) was measured using an ELISA plate reader ([…], Taiwan) at 578 nm with a reference wavelength of 630 nm. The percentage of surviving cells was calculated from the absorbance values of the test and control wells using the following Equation. 1 [drawing 1] […] Afterward, supernatants were collected, and the levels of TNF-α and NO were measured using the Mouse TNF alpha Uncoated ELISA Kit (InvitrogenTM, ThermoFisher Scientific, MA, USA) and the Total Nitric Oxide Assay Kit (InvitrogenTM, ThermoFisher Scientific, MA, USA), respectively, according to the manufacturer's instructions."}, "[2]": {"tested_on": "NO production in LPS-activated RAW264.7 cells", "assay": "NO production in LPS-activated RAW264.7 cells", "format": "cell-based, mouse", "details": "IC20 concentration, LPS-activated, 24 h", "description": "For the measurement of tumor necrosis factor-alpha (TNF-α) and NO, RAW264.7 cells were pre-treated with plant extracts and active compounds at a non-cytotoxic dose (IC20) (Table S9) or 1 µg/mL of dexamethasone (positive control) in a 24-well plate for 2 h. Subsequently, 1 µg/mL of lipopolysaccharide (LPS) (Cat No. 00497693, Invitrogen™, MA, USA) was added to each well, and the cells were incubated for an additional 24 h to allow sufficient time for the compounds to exert measurable anti-inflammatory effects while maintaining cell viability. Afterward, supernatants were collected, and the levels of TNF-α and NO were measured using the Mouse TNF alpha Uncoated ELISA Kit (Invitrogen™, ThermoFisher Scientific, MA, USA) and the Total Nitric Oxide Assay Kit (Invitrogen™, ThermoFisher Scientific, MA, USA), respectively, according to the manufacturer’s instructions.\nThe percentage of NO or cytokine inhibitions were calculated using the following equation: […]\nwhere A is the level of cytokine or NO without treatment, and B is the level of cytokine or NO with treatment."}, "[3]": {"tested_on": "WT1 protein expression in KG-1a cells", "assay": "WT1 protein expression in KG-1a cells by Western blotting", "format": "cell-based, human", "details": "IC20 concentrations, 48 h, normalized to GAPDH", "description": "(§4) KG-1a cells (1.5 × 10^5 cells/mL) were treated with compounds or extracts at different incubation times. Then, the cells were harvested and the whole proteins were extracted using a RIPA buffer (25 mM Tris-base, pH 7.6, 0.1% SDS, 1% Triton X-100, 150 mM NaCl, and 1 mM EDTA). The protein concentration was measured using the Folin-Lowry or Bradford assay. The whole protein lysates (30 µg/lane) were then separated through 7.5% SDS-PAGE under reducing conditions and then transferred to PVDF membranes. The membranes were blocked in 5% skim milk in PBS, pH 7.4 at RT for 2 h, then, target proteins were probed with specific primary antibodies (anti-WT1, anti-CD34, anti-GAPDH, anti-cleaved caspase-3, anti-cleaved PARP, anti-phospho-Akt, anti-phospho-c-Jun, anti-phospho-SAPK/JNK, and anti-YAP/TAZ) indicated in Table S10 which diluted at a ratio of 1:1,000 in PBS, pH 7.4 at RT for 2 h. After incubation, the membranes were rinsed 6 times with 0.1% Tween-20 (Sigma-Aldrich, MA, USA) in PBS, pH 7.4 (PBS-T), each time for 5 min. The reaction was followed by HRP-conjugated secondary antibody at 1:20,000 dilution in PBS, pH 7.4 at RT for 2 h, then, the membranes were rinsed 6 times for 5 min each with PBS-T. The proteins were shown using Immobilon Forte Western HRP substrate (Millipore, MA, USA). Finally, the protein band signal was quantified by using a scan densitometer (Bio-Rad Laboratories, CA, USA)."}, "[4]": {"tested_on": "CD34 protein expression in KG-1a cells", "assay": "CD34 protein expression in KG-1a cells by Western blotting", "format": "cell-based, human", "details": "IC20 concentrations, 48 h, normalized to GAPDH", "description": "as §4"}, "KG-1a cells [5]": {"tested_on": "KG-1a cells", "assay": "Trypan blue exclusion test, cell numbers of KG-1a cells", "format": "cell-based, human", "details": "IC20 concentrations, 48 h", "description": "This test was used to confirm the cytotoxicity of the test samples. The cancer cells after exposure to crude ethanolic extracts and active compounds for 48 h were harvested and washed with ice-cold PBS, pH 7.4 for 3 times. Then, the cells were resuspended with PBS, pH 7.4. The cell suspensions were diluted with PBS, pH 7.4 at the appropriate dilution before being mixed with 0.2% trypan blue solution at 1:2 dilution for cell count on a hemocytometer. From this test, the viable cells and the dead cells could also be obviously detected.\nThis test was used to confirm the cytotoxicity of crude ethanolic extracts and active compounds. KG-1a cells after exposure to crude ethanolic extracts and active compounds for 48 h were harvested and washed with ice-cold PBS, pH 7.4 for 3 times. Then, the cells were resuspended with PBS, pH 7.4. The cell suspensions were diluted with PBS, pH 7.4 at the appropriate dilution before being mixed with 0.2% trypan blue solution at 1:2 dilution for cell count on a hemocytometer. From this test, the viable cells and the dead cells could also be obviously detected."}, "[6]": {"details": "active compounds and drugs, MTT, 48 h"}}, "data": [{"smiles": "CCCCC[C@H](O)CC(=O)CCc1ccc(O)c(OC)c1", "note": "[Gingerol, gingerol]", "values": [{"measurement": "Selectivity index (SI)", "setting": "KG-1a cells [1]; 48 h", "value": "> 1.30"}, {"measurement": "Selectivity index (SI)", "setting": "KG-1a cells [1]; 48 h, listed as gingerol", "value": "greater than 1"}, {"measurement": "IC50 value R1", "setting": "KG-1a cells [1]; Table S7, KG-1a, first replicate", "value": 77.86, "unit": "µg/mL"}, {"measurement": "IC50 value R3", "setting": "KG-1a cells [1]; Table S7, KG-1a, third replicate", "value": 77.08, "unit": "µg/mL"}, {"measurement": "IC50 KG-1a", "setting": "KG-1a cells [1]; [6]", "value": "76.77 ± 1.28", "unit": "µg/mL"}, {"measurement": "IC20 KG-1a (inhibitory concentration at 20% growth)", "setting": "KG-1a cells [1]; incubation for 48 h", "value": "14.09 ± 3.87", "unit": "µg/mL"}, {"measurement": "IC50 value R1", "setting": "PBMCs; Table S8, PBMCs, first replicate", "value": "> 100", "unit": "µg/mL"}, {"measurement": "IC50 value Mean", "setting": "PBMCs; Table S8, PBMCs, mean of R1-R3", "value": "> 100", "unit": "µg/mL"}, {"measurement": "IC50 value R3", "setting": "PBMCs; Table S8, PBMCs, third replicate", "value": "> 100", "unit": "µg/mL"}, {"measurement": "IC50 PBMCs", "setting": "PBMCs; [6]", "value": "> 100", "unit": "µg/mL"}, {"measurement": "IC20 PBMCs (inhibitory concentration at 20% growth)", "setting": "PBMCs; incubation for 48 h", "value": "76.94 ± 4.13", "unit": "µg/mL"}, {"measurement": "IC20 RAW264.7 (inhibitory concentration at 20% growth)", "setting": "RAW264.7 cells", "value": "16.73 ± 4.64", "unit": "µg/mL"}, {"measurement": "effect on NO production compared to dexamethasone (positive control)", "setting": "[2]", "value": "had no effect"}, {"measurement": "decrease of WT1 protein level compared to VC", "setting": "[3]", "value": "43.98 ± 8.93", "unit": "%"}, {"measurement": "decrease of CD34 protein level compared to VC", "setting": "[4]", "value": "31.95 ± 5.70", "unit": "%"}, {"measurement": "decrease of total cell number compared to VC", "setting": "KG-1a cells [5]", "value": "31.39 ± 8.69", "unit": "%"}, {"measurement": "normalized viable cell counts", "setting": "KG-1a cells [5]", "value": "979.50 ± 8.90 × 10^3 cells per 1 million total cells"}]}]}
